target: Beta-3 Adrenergic Receptor (Homo sapiens (Human), UniProt P13945); test: Homogeneous Time-Resolved Fluorescence (HTRF) cAMP antagonist assay, IC50 determination; type: cell-based; conditions: CHO-K1 cells stably expressing recombinant receptor, isoproterenol at EC90
Summary of the method: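 In this functional readout, recombinant CHO-K1 cells received compound, then isoproterenol at its EC90. After 1 h at room temperature, cAMP levels were determined by HTRF using an on-plate standard curve, and IC50 values were fitted.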

Sequence of Beta-3 Adrenergic Receptor (P13945 whole entry, species assumed): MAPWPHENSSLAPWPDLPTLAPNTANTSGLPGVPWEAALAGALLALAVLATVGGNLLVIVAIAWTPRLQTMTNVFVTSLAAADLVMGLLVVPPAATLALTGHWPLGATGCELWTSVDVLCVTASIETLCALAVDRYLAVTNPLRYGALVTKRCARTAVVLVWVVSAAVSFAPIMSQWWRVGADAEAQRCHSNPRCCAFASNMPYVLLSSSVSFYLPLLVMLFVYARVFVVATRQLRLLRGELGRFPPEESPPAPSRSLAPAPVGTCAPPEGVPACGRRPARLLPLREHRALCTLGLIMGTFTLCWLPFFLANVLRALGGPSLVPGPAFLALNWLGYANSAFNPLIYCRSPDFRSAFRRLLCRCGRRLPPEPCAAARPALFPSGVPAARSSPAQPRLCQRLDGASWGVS

SMILES | IC50 [nM]
O=C1CCCN1CCNS(=O)(=O)c1cccc(OC[C@@H](O)CNC2COC3(CCN(S(=O)(=O)c4ccc5ccccc5c4)CC3)C2)c1 (stereo partly drawn) [Compound 164, 3-((2S)-2-hydroxy-3-(8-(naphthalen-2-ylsulfonyl)-1-oxa-8-azaspiro[4.5]decan-3-ylamino)propoxy)-N-(2-(2-oxopyrrolidin-1-yl)ethyl)benzenesulfonamide] | 84.9
CNS(=O)(=O)c1cccc(OC[C@@H](O)CN[C@@H]2COC3(CCN(S(=O)(=O)c4cccc5nsnc45)CC3)C2)c1 [Compound 244, 3-((S)-3-((S)-8-(benzo[c][1,2,5]thiadiazol-4-ylsulfonyl)-1-oxa-8-azaspiro[4.5]decan-3-ylamino)-2-hydroxypropoxy)-N-methylbenzenesulfonamide] | 76.1
Cc1cc(S(=O)(=O)N2CCC3(CC2)C[C@@H](NC[C@H](O)COc2cccc(S(N)(=O)=O)c2)CO3)ccc1Br [Compound 590, 3-((S)-3-((R)-8-(4-bromo-3-methylphenylsulfonyl)-1-oxa-8-azaspiro[4.5]decan-3-ylamino)-2-hydroxypropoxy)benzenesulfonamide] | 17.4
CN(C)CCNS(=O)(=O)c1cccc(OC[C@@H](O)CNC2COC3(CCN(S(=O)(=O)c4ccc5ccccc5c4)CC3)C2)c1 (stereo partly drawn) [Compound 167, N-(2-(dimethylamino)ethyl)-3-((2S)-2-hydroxy-3-(8-(naphthalen-2-ylsulfonyl)-1-oxa-8-azaspiro[4.5]decan-3-ylamino)propoxy)benzenesulfonamide] | 2150
Cn1cc(S(=O)(=O)N2CCC3(CC2)C[C@@H](NC[C@H](O)COc2cccc(S(N)(=O)=O)c2)CO3)c(=O)c2ccccc21 [Compound 549, 3-((S)-2-hydroxy-3-((R)-8-(1-methyl-4-oxo-1,4-dihydroquinolin-3-ylsulfonyl)-1-oxa-8-azaspiro[4.5]decan-3-ylamino)propoxy)benzenesulfonamide] | 140
O=S(=O)(NCC1CC1)c1cccc(OC[C@@H](O)CNC2COC3(CCN(S(=O)(=O)c4ccc5ccccc5c4)CC3)C2)c1 (stereo partly drawn) [Compound 8, N-(cyclopropylmethyl)-3-((2S)-2-hydroxy-3-(8-(naphthalen-2-ylsulfonyl)-1-oxa-8-azaspiro[4.5]decan-3-ylamino)propoxy)benzenesulfonamide] | 38.7
CNS(=O)(=O)c1cccc(OC[C@@H](O)CN[C@H]2COC3(CCN(S(=O)(=O)c4cnc5c(c4)[nH]c(=O)n5C)CC3)C2)c1 [Compound 518, 3-((S)-2-hydroxy-3-((R)-8-(3-methyl-2-oxo-2,3-dihydro-1H-imidazo[4,5-b]pyridin-6-ylsulfonyl)-1-oxa-8-azaspiro[4.5]decan-3-ylamino)propoxy)-N-methylbenzenesulfonamide] | 133
Cc1noc(C)c1S(=O)(=O)N1CCC2(CC1)CC(NC[C@H](O)COc1cccc(S(=O)(=O)N(C)C)c1)CO2 (stereo partly drawn) [Compound 254, 3-((2S)-3-(8-(3,5-dimethylisoxazol-4-ylsulfonyl)-1-oxa-8-azaspiro[4.5]decan-3-ylamino)-2-hydroxypropoxy)-N,N-dimethylbenzenesulfonamide] | 97.3
CNS(=O)(=O)c1cccc(OC[C@@H](O)CN[C@H]2COC3(CCN(S(=O)(=O)c4cnc5cccnc5c4)CC3)C2)c1 [Compound 485, 3-((S)-3-((R)-8-(1,5-naphthyridin-3-ylsulfonyl)-1-oxa-8-azaspiro[4.5]decan-3-ylamino)-2-hydroxypropoxy)-N-methylbenzenesulfonamide] | 35.8
CCN1CCOc2ccc(S(=O)(=O)N3CCC4(CC3)C[C@H](NC[C@H](O)COc3cccc(S(=O)(=O)NC)c3)CO4)cc21 [Compound 350, 3-((S)-3-((S)-8-(4-ethyl-3,4-dihydro-2H-benzo[b][1,4]oxazin-6-ylsulfonyl)-1-oxa-8-azaspiro[4.5]decan-3-ylamino)-2-hydroxypropoxy)-N-methylbenzenesulfonamide] | 21.8
CCCc1cnc(N2CCC3(CC2)C[C@@H](NC[C@H](O)COc2cccc(S(=O)(=O)NC)c2)CO3)nc1 [Compound 579, 3-((S)-2-hydroxy-3-((R)-8-(5-propylpyrimidin-2-yl)-1-oxa-8-azaspiro[4.5]decan-3-ylamino)propoxy)-N-methylbenzenesulfonamide] | 340
CN1CCOc2ccc(S(=O)(=O)N3CCC4(CC3)CC(NC[C@H](O)COc3cccc(S(=O)(=O)N(C)C)c3)CO4)cc21 (stereo partly drawn) [Compound 256, 3-((2S)-2-hydroxy-3-(8-(4-methyl-3,4-dihydro-2H-benzo[b][1,4]oxazin-6-ylsulfonyl)-1-oxa-8-azaspiro[4.5]decan-3-ylamino)propoxy)-N,N-dimethylbenzenesulfonamide] | 21.1
CNS(=O)(=O)c1cccc(OC[C@@H](O)CN[C@H]2COC3(CCN(S(=O)(=O)c4ccc5c(n4)OCC(=O)N5)CC3)C2)c1 [Compound 443, 3-((S)-2-hydroxy-3-((R)-8-(2-oxo-2,3-dihydro-1H-pyrido[2,3-b][1,4]oxazin-6-ylsulfonyl)-1-oxa-8-azaspiro[4.5]decan-3-ylamino)propoxy)-N-methylbenzenesulfonamide] | 36.9
COCCNS(=O)(=O)c1cccc(OC[C@@H](O)CNC2COC3(CCN(S(=O)(=O)c4ccc5ccccc5c4)CC3)C2)c1 (stereo partly drawn) [Compound 13, 3-((2S)-2-hydroxy-3-(8-(naphthalen-2-ylsulfonyl)-1-oxa-8-azaspiro[4.5]decan-3-ylamino)propoxy)-N-(2-methoxyethyl)benzenesulfonamide] | 28.7

Results, then the molecule that gave them:

IC50 [nM] | SMILES
175 | CN(C)S(=O)(=O)c1cccc(OC[C@@H](O)CNC2COC3(CCN(S(=O)(=O)c4ccc(CN)cc4)CC3)C2)c1 (stereo partly drawn) [Compound 290, 3-((2S)-3-(8-(4-(aminomethyl)phenylsulfonyl)-1-oxa-8-azaspiro[4.5]decan-3-ylamino)-2-hydroxypropoxy)-N,N-dimethylbenzenesulfonamide]
26.4 | CNS(=O)(=O)c1cccc(OC[C@@H](O)CNC2COC3(CCN(S(=O)(=O)c4ccc(C#N)cc4Cl)CC3)C2)c1 (stereo partly drawn) [Compound 157, 3-((2S)-3-(8-(2-chloro-4-cyanophenylsulfonyl)-1-oxa-8-azaspiro[4.5]decan-3-ylamino)-2-hydroxypropoxy)-N-methylbenzenesulfonamide]
13.2 | CNS(=O)(=O)c1cccc(OC[C@@H](O)CNC2COC3(CCN(S(=O)(=O)c4cccc(Br)c4)CC3)C2)c1 (stereo partly drawn) [Compound 20, 3-((2S)-3-(8-(3-bromophenylsulfonyl)-1-oxa-8-azaspiro[4.5]decan-3-ylamino)-2-hydroxypropoxy)-N-methylbenzenesulfonamide]
14.6 | CNS(=O)(=O)c1cccc(OC[C@@H](O)CNC2COC3(CCN(S(=O)(=O)c4cccc(C)c4F)CC3)C2)c1 (stereo partly drawn) [Compound 160, 3-((2S)-3-(8-(2-fluoro-3-methylphenylsulfonyl)-1-oxa-8-azaspiro[4.5]decan-3-ylamino)-2-hydroxypropoxy)-N-methylbenzenesulfonamide]
84.6 | CCn1cc(-c2cccc(S(=O)(=O)N3CCC4(CC3)C[C@@H](NC[C@H](O)COc3cccc(S(=O)(=O)NC)c3)CO4)c2)cn1 [Compound 283, 3-((S)-3-((R)-8-(3-(1-ethyl-1H-pyrazol-4-yl)phenylsulfonyl)-1-oxa-8-azaspiro[4.5]decan-3-ylamino)-2-hydroxypropoxy)-N-methylbenzenesulfonamide]
33.5 | CNS(=O)(=O)c1cccc(OC[C@@H](O)CNC2COC3(CCN(S(=O)(=O)c4cccc(-c5cccc(S(=O)(=O)N(C)C)c5)c4)CC3)C2)c1 (stereo partly drawn) [Compound 115, 3′-(3-((S)-2-hydroxy-3-(3-(N-methylsulfamoyl)phenoxy)propylamino)-1-oxa-8-azaspiro[4.5]decan-8-ylsulfonyl)-N,N-dimethylbiphenyl-3-sulfonamide]
21 | CNS(=O)(=O)c1cccc(OC[C@@H](O)CNC2COC3(CCN(S(=O)(=O)c4ccc(-c5ccc(CN)cc5)cc4)CC3)C2)c1 (stereo partly drawn) [Compound 382, 3-((2S)-3-(8-(4′-(aminomethyl)biphenyl-4-ylsulfonyl)-1-oxa-8-azaspiro[4.5]decan-3-ylamino)-2-hydroxypropoxy)-N-methylbenzenesulfonamide]
27.2 | CCOc1ccc(-c2ccc(CNC(C)C)cc2)cc1S(=O)(=O)N1CCC2(CC1)C[C@@H](NC[C@H](O)COc1cccc(S(=O)(=O)NC)c1)CO2 [Compound 439, 3-((S)-3-((R)-8-(4-ethoxy-4′-((isopropylamino)methyl)biphenyl-3-ylsulfonyl)-1-oxa-8-azaspiro[4.5]decan-3-ylamino)-2-hydroxypropoxy)-N-methylbenzenesulfonamide]
28.9 | CNS(=O)(=O)c1cccc(OC[C@@H](O)CN[C@H]2COC3(CCN(S(=O)(=O)c4ccc5[nH]cnc5c4)CC3)C2)c1 [Compound 503, 3-((S)-3-((R)-8-(1H-benzo[d]imidazol-5-ylsulfonyl)-1-oxa-8-azaspiro[4.5]decan-3-ylamino)-2-hydroxypropoxy)-N-methylbenzenesulfonamide]
9.69 | CCOc1ccc(-c2ccc(CN)cc2)cc1S(=O)(=O)N1CCC2(CC1)C[C@H](NC[C@H](O)COc1cccc(S(=O)(=O)NC)c1)CO2 [Compound 419, 3-((S)-3-((S)-8-(4′-(aminomethyl)-4-ethoxybiphenyl-3-ylsulfonyl)-1-oxa-8-azaspiro[4.5]decan-3-ylamino)-2-hydroxypropoxy)-N-methylbenzenesulfonamide]
23 | CNS(=O)(=O)c1cccc(OC[C@@H](O)CNC2COC3(CCN(S(=O)(=O)c4ccc(-c5cccnc5)cc4)CC3)C2)c1 (stereo partly drawn) [Compound 407, 3-((2S)-2-hydroxy-3-(8-(4-(pyridin-3-yl)phenylsulfonyl)-1-oxa-8-azaspiro[4.5]decan-3-ylamino)propoxy)-N-methylbenzenesulfonamide]
19 | CNS(=O)(=O)c1cccc(OC[C@@H](O)CNC2COC3(CCN(S(=O)(=O)c4cccc(-c5cncc(C)c5)c4)CC3)C2)c1 (stereo partly drawn) [Compound 110, 3-((2S)-2-hydroxy-3-(8-(3-(5-methylpyridin-3-yl)phenylsulfonyl)-1-oxa-8-azaspiro[4.5]decan-3-ylamino)propoxy)-N-methylbenzenesulfonamide]

From patent US11987588B2, “Modulators of the beta-3 adrenergic receptor useful for the treatment or prevention of heart failure and disorders related thereto” (Arena Pharmaceuticals, Inc., priority 2017, dated 2024)
